For one assay, the target named is T1, AURKB (Homo sapiens, UniProt Q96GD4).
T1 construct: endogenous in cells; host or cells: THP-1
Nature of the assay: Expression proteomics in THP-1 cells: AURKB protein level. Type of assay: cell-based. The method, then:
(§1) THP-1 cells were seeded at a concentration of 3×10^6 cells in T175 flasks with 60 mL growth medium (RPMI1640+10% FBS). […] of a 10× compound solution prepared in growth medium (DMSO), CEREBLON_PROTAC) was added and the cells were treated for the indicated time points (6 or 24 h) at 37° C., 5% CO2. For harvesting the cells were collected into falcon tubes on ice, centrifuged and washed twice in cold PBS (Life technologies). After the last washing step the supernatant was removed and the pellets were snap-frozen in liquid N2 and stored at −80° C. and lysed in 2% SDS for 3 min at 95° C. in a thermomixer (Thermo Fisher Scientific), followed by digestion of DNA with Benzonase at 37° C. for 1.5 h. Lysate was cleared by centrifugation an protein concentration in supernatant was determined by BCA assay.
(§2) Leukemia 25, 89-100 (2011).
(§3) Samples were dried in vacuo and resuspended in 0.05% trifluoroacetic acid in water. Of the sample, 50% was injected into an Ultimate3000 nanoRLSC (Dionex, Sunnyvale, Calif.) coupled to a Q Exactive HF (Thermo Fisher Scientific). Peptides were trapped on a 5 mm×300 μm C18 column (Pepmap100, 5 μm, 300 Å, Thermo Fisher Scientific) in water with 0.05% TFA at 60° C. Separation was performed on custom 50 cm×[…] (ID) reversed-phase columns (Reprosil) at 55° C. Gradient elution was performed from 2% acetonitrile to 40% acetonitrile in 0.1% formic acid and 3.5% DMSO over 2 hours. Samples were online injected into Q-Exactive HF mass spectrometers operating with a data-dependent top 10 method. MS spectra were acquired by using 60.000 resolution and an ion target of 3×10^6. Higher energy collisional dissociation (HCD) scans were performed with 35% NCE at 30.000 resolution (at m/z 200), and the ion target settings was set to 2×10^5 so as to avoid coalescence (Werner, T. et al. Ion Coalescence of Neutron Encoded TMT 10-Plex Reporter Ions. Anal. Chem. 86, 3594-3601 (2014).
(§4) The first search was performed with 30 parts per million mass tolerance for peptide precursors and 30 mD (HCD) mass tolerance for fragment ions followed by a final search using recalibrated data with a 10 parts per million mass tolerance for peptide precursors and 20 mD (HCD) mass tolerance for fragment ions. Carbamidomethylation of cysteine residues and TMT modification of lysine residues were set as fixed modifications and methionine oxidation, and N-terminal acetylation of proteins and TMT modification of peptide N-termini were set as variable modifications. […]
(§5) Nat Biotech 29, 255-265 (2011). this measure is referred to as ion area Savitski, M. M. et al. Delayed Fragmentation and Optimized Isolation Width Settings for Improvement of Protein Identification and Accuracy of Isobaric Mass Tag Quantification on Orbitrap-Type Mass Spectrometers. […]

In another assay the target is T2, LATS1 (Homo sapiens, UniProt O95835).
T2 construct: endogenous in cells; host or cells: THP-1
T2 sequence (O95835 1-1130): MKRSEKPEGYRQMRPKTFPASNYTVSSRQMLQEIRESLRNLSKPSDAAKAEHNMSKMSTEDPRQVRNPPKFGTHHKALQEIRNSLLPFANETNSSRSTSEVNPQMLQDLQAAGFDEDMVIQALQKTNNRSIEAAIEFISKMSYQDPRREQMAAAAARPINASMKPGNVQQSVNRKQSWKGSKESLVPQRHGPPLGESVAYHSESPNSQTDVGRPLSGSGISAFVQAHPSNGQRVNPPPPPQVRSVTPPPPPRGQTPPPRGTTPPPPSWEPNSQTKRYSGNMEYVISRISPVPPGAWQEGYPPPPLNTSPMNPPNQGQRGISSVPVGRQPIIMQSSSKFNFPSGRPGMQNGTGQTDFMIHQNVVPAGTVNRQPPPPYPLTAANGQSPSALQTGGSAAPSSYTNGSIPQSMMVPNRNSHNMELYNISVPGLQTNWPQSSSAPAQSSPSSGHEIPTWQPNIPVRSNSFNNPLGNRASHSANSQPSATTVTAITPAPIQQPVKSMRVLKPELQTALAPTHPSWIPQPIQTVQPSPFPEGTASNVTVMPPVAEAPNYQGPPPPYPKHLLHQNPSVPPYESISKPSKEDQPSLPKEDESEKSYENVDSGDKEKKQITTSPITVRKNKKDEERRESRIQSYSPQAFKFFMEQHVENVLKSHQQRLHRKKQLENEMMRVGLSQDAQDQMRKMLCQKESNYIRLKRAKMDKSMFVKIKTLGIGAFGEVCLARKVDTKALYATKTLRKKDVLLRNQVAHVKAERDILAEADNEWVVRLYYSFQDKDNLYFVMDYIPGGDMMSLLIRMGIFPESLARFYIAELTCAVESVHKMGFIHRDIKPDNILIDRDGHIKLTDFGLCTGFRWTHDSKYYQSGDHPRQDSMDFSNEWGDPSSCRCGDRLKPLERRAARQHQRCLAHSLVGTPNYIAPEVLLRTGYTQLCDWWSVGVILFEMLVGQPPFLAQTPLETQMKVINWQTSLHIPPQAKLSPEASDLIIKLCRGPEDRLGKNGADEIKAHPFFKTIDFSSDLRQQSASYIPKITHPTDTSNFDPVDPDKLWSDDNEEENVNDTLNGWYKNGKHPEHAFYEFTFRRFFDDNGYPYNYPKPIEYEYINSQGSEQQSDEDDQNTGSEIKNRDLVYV
Kind of assay: Expression proteomics in THP-1 cells: LATS1 protein level. Type of assay: cell-based. Conditions: LATS1, THP-1 cells. The method, then: as §1, §2, §3, §4, §5

Structures are written as SMILES.

T1 sequence (Q96GD4 whole entry): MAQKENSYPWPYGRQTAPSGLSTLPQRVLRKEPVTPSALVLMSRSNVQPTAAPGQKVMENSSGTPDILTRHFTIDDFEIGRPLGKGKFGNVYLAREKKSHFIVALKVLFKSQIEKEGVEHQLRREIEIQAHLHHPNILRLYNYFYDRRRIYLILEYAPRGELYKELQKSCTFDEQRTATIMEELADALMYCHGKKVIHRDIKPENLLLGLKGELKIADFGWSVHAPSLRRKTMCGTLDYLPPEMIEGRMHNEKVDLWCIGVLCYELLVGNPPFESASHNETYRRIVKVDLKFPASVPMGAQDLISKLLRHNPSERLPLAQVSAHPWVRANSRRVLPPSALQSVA

For `CNC(=O)c1ccccc1Nc1nc(Nc2ccc(N3CCN(CCOCCOCCOCCOCC(=O)Nc4cccc5c4CN(C4CCC(=O)NC4=O)C5=O)CC3)cc2)ncc1Cl.O=CO` (centres unmarked) [CEREBLON_PROTAC, 14-(4-(4-((5-Chloro-4-((2-(methylcarbamoyl)phenyl)amino)pyrimidin-2-yl)amino)phenyl)piperazin-1-yl)-N-(2-(2,6-dioxopiperidin-3-yl)-1-oxoisoindolin-4-yl)-3,6,9,12-tetraoxatetradecan-1-amide formate], the “log2 rel. fc. to vehicle control” value at AURKB (24 h 0.1 μM, n = 1) was −1.75; at AURKB (24 h 0.1 μM, n = 2), −1.44; at AURKB (24 h 1 μM, n = 1) it was −0.83; on AURKB (24 h 1 μM, n = 2), −1.33; at LATS1 (24 h 0.1 μM, n = 1) it was −1.02; on LATS1 (24 h 0.1 μM, n = 2), −1.01. Besides, the “log2 rel. fc. to vehicle control” value on LATS1 (24 h 1 μM, n = 1) is −1.46; on LATS1 (24 h 1 μM, n = 2) it was −1.55.

These data come from patent US20190210996A1, “NOVEL COMPOUNDS” (GLAXOSMITHKLINE INTELLECTUAL PROPERTY DEVELOPMENT LIMITED, priority 2016, published 2019).
